The results in this text go back to a melting point compilation (Tetko et al.; mined from patent text by program, amines drawn as free bases though some values may be those of a salt).

A value given as a limit tells only on which side of the number the result lay.

One may read the melting point as the temperature of the solid-liquid transition. Turning to `O=C(NC(Cc1ccc(-c2cccc3ccccc23)cc1)C(=O)O)C(CS)Cc1ccccc1` (configuration not stated), the melting point was found to be 158 °C.
As to `COc1ccc2c(=O)c(C=O)coc2c1OC(C)=O`, the melting point lay within 160 to 161 °C.
`O=C(NCCO)/C(=C/c1ccc(OC(F)(F)F)cc1)NC(=O)c1ccc(OCCC2CC2)cc1` returned a melting point of 142 to 144 °C.
`CN1Cc2c(-c3noc(CN)n3)ncn2-c2sccc2C1=O`: the melting point is 181 to 183 °C.
`COc1ccc2cc([C@H](C)C(=O)OCC(C)(CO)CO)ccc2c1` returned a melting point of 105 °C.
Consider `CCCn1nc(O)c2cc(Cl)c(Cl)cc2c1=O`, for which the melting point is 223 °C.
`CC(O)c1cn(C2CCc3c(F)cc(F)cc3C2)c(=S)[nH]1` (configuration not stated) returned a melting point of 210 to 211 °C.
The figure for `CC(C)Cn1c(CN2C(=O)c3ccccc3C2=O)c(OCCCC(F)(F)F)c2cc(OCc3ccccc3)ccc2c1=O` is 131 to 132 °C; for `CCCCCCCCC#CCC#CCC#CCS(=O)CC(=O)NCC` (configuration not stated) it is 77 °C.
`COC(=O)c1cc(Cl)cc(CC=O)c1O` registered a melting point of 49 to 59 °C.
Regarding `O=C(O)CCN1CCN(c2cccc(C(F)(F)F)c2)CC1`, the melting point lay in the range of 228 to 230 °C.
In the case of `CCP(=S)(CC)OC(=O)/C=N\OCc1csc(N)n1`, the melting point lay within 87 to 88 °C.
`O=[N+]([O-])c1ccc(Oc2ccc3c(c2)Nc2ccccc2S3)cc1` came in with a melting point of 210 to 211 °C.
`CC(=O)CC(C)c1ccc(-c2ccccc2)c(F)c1` (configuration not stated) registered a melting point of 85 °C.
In the case of `Nc1cnccc1CNC(=O)C1Cc2ccccc2N1S(=O)(=O)c1ccc(-c2cccc(C(F)(F)F)c2)cc1` (configuration not stated), the melting point is 105 to 108 °C.
Take `O=C1c2cccc3cc4ccccc4c(c23)C(=O)N1CCNCCNCCN1C(=O)c2cccc3cc4ccccc4c(c23)C1=O`: the melting point was determined as 203 °C.
Consider `Cc1nc(N)c2nc(CO)n(Cc3cc(-c4ccc(F)cc4)no3)c2c1C`, for which the melting point is 164 to 165 °C.
For the molecule `CNc1cc(Oc2cc(C(F)(F)F)nn2C)nc(Oc2cc(C(F)(F)F)nn2C)c1`, the melting point came to 118 °C.
Molecule `CC1=NCN(c2ccc(Br)s2)O1` gave a melting point of 48 to 49 °C.
The figure for `CC(=O)Oc1ccccc1Cn1nnnc1-c1cccc(Cl)c1Cl` is 195 to 196 °C.
The figure for `COc1ccc(C[C@H](C[C@H](O)[C@H](Cc2ccccc2)NC(=O)OC(C)(C)C)C(=O)O)c(OC)c1` is 144 to 145 °C; for `O=C(O)CCCCCCCCn1c(-c2ccccc2)nc(-c2ccccc2)c1-c1ccccc1` it is 149 to 150 °C.
In the case of `CNC(=NC#N)NCCSCc1nsc(NC(=N)N)n1`, the melting point was in the range of 198 to 199 °C.
Take `CCOC(=O)N1CCN(C2Cc3cc(C)ccc3Sc3ccccc32)CC1` (configuration not stated): the melting point was 96 to 98 °C.
Molecule `FC(F)(F)c1c[nH]c(-c2cccc(OCC3CO3)c2)n1` (configuration not stated) displayed a melting point of 145 to 146 °C.
Molecule `CCOC(=O)NN=Cc1c[nH]c(Cc2ccccc2)n1` gave a melting point of 184 to 185 °C.
In the case of `Cc1c(C)c(N2CCN(c3c(C)c(C)c4c(c3C)CC(C)(C)O4)CC2)c(C)c2c1OC(C)(C)C2`, the melting point fell in the range of 256 to 260 °C.
`Cc1nc2c(Cl)c(NC(=O)Cc3ccc(Cl)cc3)ccc2s1`: the melting point lay within 227 to 229 °C.
`CCOCCOCCn1ccc2c1CC(c1ccccc1Cl)C1C(=O)NC(=O)C21` (configuration not stated) displayed a melting point of 158 to 162 °C.
For the molecule `CSc1nc(C)ccc1NC(=O)CCCCCCCCSc1nc2ccccc2o1`, the melting point was 99 to 100 °C.
The figure for `COc1ccc(C(=O)c2ccc(Br)s2)cc1` is 97 to 99 °C; for `C=CCOc1ccccc1S(=O)(=O)NC(=O)n1nc(SCCF)n(C2CC2)c1=O` it is 15 °C; for `Cc1ccc(C(=C/C=C/C=O)c2ccc(C)cc2)cc1` it is 92 to 93 °C.
`O=C(Nc1ccc([N+](=O)[O-])cc1)c1ccccc1Br` yielded a melting point of 200 to 202 °C.
On to `COc1cc2c(c(OC)c1OC)-c1cc(I)c(O)cc1[C@@H](NC(C)=O)CC2`, for which the melting point is 210 °C.
Next, `Cc1cc(-n2nc(C(F)(F)F)cc2-c2ccc(S(C)(=O)=O)cc2)ccc1Br`: 127 to 129 °C; `CC(=O)Nc1cccc2c1CC(=O)CC2`: 203 to 205 °C; `c1cc2c(cc1-c1nc(OCC3CC3)nc3cc4c(cc13)OCO4)OCO2`: 175 to 182 °C.
For `CC12CCC3c4ccc(C(=O)O)cc4CCC3C1CCC2C(=O)c1ccccc1` (configuration not stated), the melting point is 210 to 215 °C.
The molecule `O=c1[nH]c2cc(Br)cc3c2n(c1=O)CC3` had a melting point of more than 300 °C.
The figure for `COc1ccc(-c2nc3c(C(N)=O)cccc3n2C)cc1` is 289 to 292 °C; for `CCOC(=O)Oc1ccc2nc(S)n(C)c(=O)c2c1` it is 216 to 220 °C; for `Cc1cc(C)nc([NH+]([O-])C(=O)Cc2cccs2)c1` (configuration not stated) it is 154 to 155 °C.
Consider `CC(C)(C)c1cc(OCC(=O)OCCN2C(C)(C)CC(OC(=O)COc3ccc(O)c(C(C)(C)C)c3)CC2(C)C)ccc1O`, for which the melting point lay in the range of 74 to 77 °C.
`CCOC(=O)CSc1cc(Cl)nc(NCc2ccc(Cl)cc2)n1` displayed a melting point of 122 to 125 °C.
For the molecule `C[C@@H](n1cnc2ccc(F)cc2c1=O)[C@](O)(Cn1cncn1)c1ccc(F)cc1F`, the melting point was in the range of 192 to 193 °C.
The molecule `CN(C)C=Nc1c(Cl)cc(N=Cc2ccc(-c3ccccc3)cc2)cc1Cl` yielded a melting point of 108 to 110 °C.
The figure for `COC(C(=O)O)c1nn(-c2ccc(Br)cc2)c2c1CCCC2` (configuration not stated) is 123 °C.
Regarding `COc1ccc2ncc(NC(=O)C=Cc3cc(OC)c(OC(C)=O)c(OC)c3)c(-c3ccccc3)c2c1`, the melting point fell in the range of 273 to 275 °C.
Molecule `O=C(Nc1nccs1)c1nc(-c2cccc3ccccc23)[nH]c1-c1ccc([N+](=O)[O-])cc1` registered a melting point of 237 to 238 °C.
The figure for `CC(C)(C)OC(=O)N1Cc2c(-c3noc(C4CC4)n3)ncn2-c2ccccc21` is 204 °C.
Next, `O=C(Nc1ccc(F)cc1)N(CCO)CCCCO`: 62 to 64 °C; `CCNC(=O)n1nc(Oc2ncc(C(F)(F)F)cc2Cl)c(Cl)c1C`: 111 to 112 °C.
For `CSCC(C)OC(=O)C(=C1NCCCS1)[N+](=O)[O-]` (configuration not stated), the melting point fell in the range of 58 to 60 °C.
`O=C(NCc1ccc(Cl)cc1)c1noc2ccc(I)cc2c1=O` showed a melting point of 188 to 190 °C.
With `Cc1ccc(S(=O)(=O)N2Cc3csc(C)c3C2)cc1`, the melting point was 158 to 160 °C.
`COCCOCCn1cc(C(=O)NCc2ccc(Cl)cc2)c(=O)c2cc(CO)ccc21` yielded a melting point of 161 to 162 °C.
For the molecule `COc1ccc2sc(C(=O)O)nc2c1[N+](=O)[O-]`, the melting point was 140 to 142 °C.
Next, `CCCC1=Nc2ccccc2CC(c2ccsc2)N1C` (configuration not stated): 44.5 to 46.5 °C; `CCOC(=O)NC(=S)Nc1ccsc1C(=O)OC`: 165 to 167 °C; `CN1CCC(OC2c3ccccc3CCn3c2nc(-c2ccccc2)c3-c2ccccc2)CC1` (configuration not stated): 90 °C.
For the molecule `CCCC(=O)OC[C@H]1O[C@@H](n2ccc(OCC)nc2=O)CS1` (relative stereo), the melting point is 59 to 61 °C.
As to `O=Cc1ccc(Oc2ccc3c(c2)OCO3)cc1`, the melting point fell in the range of 67 to 70 °C.
Molecule `Cc1ccc(C(=O)NCCO)cc1-n1c(C)cc(OCc2ccccc2CNC(=O)Nc2cc(C(C)(C)C)nn2-c2cccc(OCCO)c2)c(Cl)c1=O` had a melting point of 162 to 163 °C.
The figure for `O=C(O)CO[C@@H]1CCCC[C@H]1NC(=S)Nc1ccccc1` (relative stereo) is 147 to 149 °C.
In turn, `COc1ccn(-c2nc(C)c(C(=O)NCc3cccnc3)s2)c(=O)c1` displayed a melting point of 200 to 202 °C.
In turn, `CCOC(=O)C1=C(N)N=C(SCC)C(C(=O)OCC)C1c1ccncc1` (configuration not stated) registered a melting point of 156 °C.
As for `Cn1nc(-c2ccc(Cl)cc2)c2c1-c1ccccc1C2`, the melting point came out at 176 °C.
`COc1ccc(CSc2ccncc2)c2c1OC(C)(C)C2` showed a melting point of 109 to 113 °C.
`O=C(Nc1ccc2nc(CN3CCN=C3c3ccccc3)ccc2c1)c1ccc(-c2ccc(F)cc2)cc1` returned a melting point of 209 to 210 °C.
Turning to `CC1(C)C(c2ccccc2)=Nc2ccc(C3=NNC(=O)CC3)cc21`, the melting point fell in the range of 200 to 201 °C.
Molecule `O=C(O)c1ccc(NCCCCCCCCCCc2ccccc2)cc1` yielded a melting point of 80 to 87 °C.
`CCCCOc1ccc(S(=O)(=O)C2(C(=O)O)CCN(Cc3cccc(Oc4ccccc4)c3)CC2)cc1` showed a melting point of 92.5 °C.
Consider `COC(=O)c1cn(-c2ccc(F)cc2)c(C=Cc2cccnc2)cc1=O`, for which the melting point was 201 to 204 °C.
Molecule `CCc1cc(SCCc2cccc3cn(-c4ccc(C(F)(F)F)cc4)nc23)ccc1OCC(=O)O` returned a melting point of 115 to 117 °C.
Consider `O=C(NCc1cccs1)C1CC2C=CC1C2` (configuration not stated), for which the melting point is 123 to 124 °C.
Consider `C=CCc1c(C)ccc(N2C(=O)c3ccccc3C2=O)c1O`, for which the melting point was in the range of 178 to 180 °C.
`CCOc1ccc2c(c1)n(C(C)(C)CC(C)(C)C)c(=O)n2S(=O)(=O)c1ccc(NC(=O)N(CC)CC)cc1OC` returned a melting point of 225 °C.
For the molecule `Cc1[nH]c2ccc(OCCN3CCCC3c3cccnc3)cc2c1C(=O)OCc1ccccc1` (configuration not stated), the melting point fell in the range of 126 to 127 °C.
Next, `CON=C(C)c1ccc2nnn(Cc3ccc4ncccc4c3)c2n1`: 155 to 157 °C.
The figure for `CS(=O)(=O)c1ccc(-n2nc(C(F)(F)F)cc2-c2ccc(-c3ccsc3)cc2)cc1F` is 72 to 74 °C; for `Cc1c(CO)cc([N+](=O)[O-])c(Cl)c1[N+](=O)[O-]` it is 158 to 160 °C; for `CC(C)(S)CNCc1ccc(O)cc1` it is 85 to 87 °C.
`CCCCCCCCCCCCCCCCCCOCC(CBr)OCCCCCCCCCCCCCCCCCC` (configuration not stated): the melting point fell in the range of 38 to 38.8 °C.
`O=C(Cn1c(-c2cc([N+](=O)[O-])cc([N+](=O)[O-])c2)ncc(NC(=O)OCc2ccccc2)c1=O)NC(Cc1ccccc1)C(=O)C(F)(F)F` (configuration not stated) registered a melting point of 154 to 157 °C.
Next, `O=c1c(-c2ccccc2)coc2cc(OCC3CO3)ccc12` (configuration not stated): 151 to 152 °C; `CCn1ncc2c1ncc1c(NCCCN(C)C)nc3cc(C)nn3c12`: 178 to 179 °C.
